Patent publication US10245255B2, “Compositions and methods for the treatment of obesity and related disorders” (THE REGENTS OF THE UNIVERSITY OF MICHIGAN, priority 2011, dated 2019)
“Also recorded” adds a separate entry of the source.

Key:
[1] = Diet-induced obesity treatment group: blood chemistry; assay type: in vivo, C57BL/6 mice
Procedure: (§1) Wild type male C57BL/6 mice were fed a high fat diet consisting of 45% of calories from fat (D12451 Research Diets Inc., New Brunswick, N.J.) starting at 8 weeks of age for 12-24 weeks, while normal diet C57BL/6 controls were maintained on normal chow diet consisting of 4.5% fat (5002 Lab Diet, Philadelphia, Pa.). Diets containing ω-3 fatty acids were fed as previously described 24. Rosiglitazone treatment was administered for three weeks by addition of the compound to the diet in mice that had been on HFD for 16 weeks. Each mouse consumed on average 3.5 mg/kg rosiglitazone per day. Amlexanox was administered by daily oral gavage. […] Animals were housed in a specific pathogen-free facility with a 12-hour light/12-hour dark cycle and given free access to food and water. All animal use was in compliance with the Institute of Laboratory Animal Research Guide for the Care and Use of Laboratory Animals and approved by the University Committee on Use and Care of Animals at the University of Michigan and UCSD.
Blood glucose was measured by OneTouch Ultra Glucometer. Plasma from mice fasted for six hours was isolated from whole blood collected into heparinized tubes. Insulin concentrations were measured by insulin ELISA kit (Crystal Chem Inc., Downers Grove, Ill.). Leptin and adiponectin levels were measured by ELISA kits purchased from Cayman Chem Inc. (Ann Arbor, Mich.). Cytokine levels were quantified utilizing luminex technology in a multianalyte panel plate purchased from Millipore (Billerica, Mass.). Additionally, TNFα levels were measured using ELISA kits purchased from R&D Systems (Minneapolis, Minn.).

[2] = test system: broad panel of kinases representing most families; experiment: Broad panel of kinases; assay type: biochemical
[3] = Ob/ob mice: insulin tolerance test; assay type: in vivo; conditions: 100 mg/kg, 8-week period
Procedure: (§2) Particular physiological tests were used during the development of the technology provided herein. For example, in some of the experiments described below, subjects were tested for tolerance of injected glucose and insulin according to the methods described in Chiang et al. (“The protein kinase IKKepsilon regulates energy balance in obese mice”, Cell (2009) 138: 961-975, incorporated herein by reference in its entirety for all purposes). In some of the experiments described below, subjects were tested for tolerance of oral glucose. In particular, mice were fasted for 6 hours before the studies. For ob/ob mice, 1.0-1.5 mg/g of glucose was gavaged into mice, and blood glucose was measured with a glucometer (e.g., OneTouch Ultra glucometer). Measurement of triglycerides, mRNA, and cytokines were performed according to the methods described in Chiang et al. (The protein kinase IKKepsilon regulates energy balance in obese mice. Cell (2009) 138: 961-975).
(§3) For glucose tolerance tests, after a six-hour fast mice were orally gavaged with glucose at a dose of 1.5 g/kg (C57BL/6 mice) or 1.2 g/kg (ob/ob mice). […] Blood glucose was measured at basal, 15, 30, 45, 60, 90, 120 and 180 minutes from tail blood using the One Touch Ultra glucometer (Lifescan, Milpitas, Calif.).

[4] = Ob/ob mice: liver mRNA levels; assay type: in vivo; conditions: 100 mg/kg for 14 weeks, vs vehicle
Procedure: as §2
Mouse tissues were isolated, rinsed in Phosphate Buffered Saline (PBS), frozen in liquid nitrogen and stored at −80° C. until extraction. Total RNA was extracted from Liver, WAT and BAT tissues as well as differentiated 3T3-L1 cells using the RNeasy Lipid Tissue Kit (Qiagen, Valencia, Calif.) according to the manufacturer's instructions with the inclusion of a DNase digestion step. Total RNA was extracted from BMDM and SVF cells using the RNeasy Kit (Qiagen, Valencia, Calif.) with a DNase step. The Superscript First-Strand Synthesis System for RTPCR (Invitrogen, Grand Island, N.Y.) was used with random primers for reverse transcription. Realtime PCR amplification of the cDNA was performed on samples in triplicate with Power SYBR Green PCR Master Mix (Applied Biosystems, Carlsbad, Calif.) using the Applied Biosystems 7900HT Fast Realtime PCR System. […] Data was analyzed using the 2-ΔΔCT method, and statistical significance was determined using the unpaired heterocedastic Student's t-test with one averaged sample value per mouse.

[5] = test system: 3T3-L1 adipocytes; experiment: 3T3-L1 adipocytes: phosphorylation (immunoblot) and lipolysis; assay type: cell-based
Procedure: 3T3-L1 fibroblasts (American Type Culture Collection, Manassas, Va.) were cultured and differentiated using standard methods known in the art. […] 3T3-L1 adipocytes were serum starved with 0.5% fetal bovine serum (FBS) in Dulbecco's modified eagle medium (DMEM) prior to treatment. TNFα treatments (50 ng/mL unless otherwise noted) were performed during the 24 hour prior to harvest, after pretreatment with IKKβ inhibitor compound VIII (EMD Biosciences, Philadelphia, Pa.) for 1 hour where indicated. […] Cells were treated with or without 10 nM of insulin for 15 minutes. RAW264.7 cells were serum starved with 0.5% FBS DMEM media and pre-treated with or without Cay-10576 (Cayman Chemical, Ann Arbor, Mich.). The cells were then treated with LPS (0.5 μg/ml) or poly I:C (50 μg/ml) for 1 hour. Cells were harvested for total RNA and analyzed by real-time PCR Cell lysates were resolved on SDS-PAGE and analyzed by immunoblot using the indicated antibodies.

[6] = Ob/ob mice: glucose tolerance tests; assay type: in vivo; conditions: 100 mg/kg
Procedure: as §2, §3

[7] = High fat diet prevention group: body weight and food intake; assay type: in vivo, C57BL/6 mice
Procedure: as §1
The remaining weight of food provided was determined daily for singly housed mice. Daily food consumption was calculated from a three-day average.

[8] = cells chronically treated with TNFα

## CC(C)c1ccc2oc3nc(N)c(C(=O)O)cc3c(=O)c2c1 [amlexanox, 2-amino-7-isopropyl-5-oxo-5H-chromeno[2,3-b]pyridine-3-carboxylic acid]
[1]; 25 mg/kg for 8 weeks after established diet-induced obesity
  fasting serum insulin: reversed elevations
[1]; 25 mg/kg, HFD, treatment phase
  decrease in fasting levels of leptin: 80%
  serum cholesterol: unchanged
  serum free fatty acids: unchanged
  serum triglycerides: unchanged
[2]
  block of other kinases of a broad panel: did not block
[3]
  insulin sensitivity (responsiveness to injected insulin): dramatically improved
[4]
  liver mRNA level, Cd11c: reduced
  liver mRNA level, F4/80: reduced
  liver mRNA level, IL-10: reduced
  liver mRNA level, MIP1α: reduced
  liver mRNA level, Rantes: reduced
  liver mRNA level, TNFα: reduced
  liver mRNA level, acetyl CoA carboxylase (ACC): reduced
  liver mRNA level, fatty acid synthase (FAS): reduced
  liver mRNA level, stearyl CoA desaturase (SCD1): reduced
[5]
  basal lipolytic rate (glycerol release): increased
[5]; 1 hour pre-treatment, 20 μg/ml poly I:C
  poly I:C-stimulated phosphorylation of IRF3 (serine 396): blocked; also recorded: inhibition
[5]; [8]
  down regulation of PPARγ produced by TNFα: did not affect
  forskolin stimulated hormone sensitive lipase phosphorylation (serine 660): restored; also recorded: partially restores
  phosphorylation of TBK1 at serine 172 in TNFα-treated cells: restored
[5]; two-fold serial dilution, highest concentration 50 μM, with and without poly I:C
  phosphorylation of TBK1 on serine 172: increased phosphorylation; also recorded: induction
[6]; 5-week period
  tolerance to injected glucose: faster clearance of blood glucose
[6]; 8-week period, relative to control mice
  reduction in the area under the curve (oral glucose tolerance): 30-40%
[7]; 45% fat diet, 25 or 100 mg/kg, throughout 12 weeks
  body weight compared with control diet mice: maintained weights equivalent to those of control diet mice
[7]; 45% fat diet, daily gavage, either dose 25 or 100 mg/kg
  weight gain produced by high-fat diet: prevented the weight gain
[7]; both doses 25 and 100 mg/kg, after 12 weeks on 45% fat diet
  weight gain after switching to 60% fat diet: prevented substantial weight gain
